Assay [1] relates to Human melanoma cells LU1205. Description: Caspase and PARP cleavage immunoblot in LU1205 cells. Type of assay: cell-based. The conditions noted are these: peptides by transfection, UCN-01 (5 μm) 24 hours. The method, then:
(§1) Human melanoma cells LU1205 were transfected with the nucleic acid molecules that encode either ATF2^51-100 peptide or ATF2^51-60 peptide. Twenty-four hours after transfection, cells were treated with of UCN-01 (5 μm) for 24 hours. Immunoblotting analysis was performed using caspase 9 and PARP antibodies, and β-actin was used as a loading control (FIG. 6A). The same experiment was performed in SW-1 cells (FIG. 6B). Stars point to the position of the uncleaved form whereas arrows point to the cleaved products.
(§2) Effect on Apoptosis. Assessed next was the degree of apoptosis in SW1 cells under normal growth (spontaneous) as well as following treatment with chemotherapeutic drugs. Cells were analyzed to detect spontaneous (basal) or induced apoptosis [following treatment with the kinase inhibitor UCN-01 (kindly provided by NCI repository) for 36 hours]. Apoptosis was measured by using FACS (Ivanov et al., Mol. Cell, 2001, 7:517-28) to quantify the percentage of hypodiploid nuclei undergoing DNA fragmentation. Nucleation as a marker of apoptosis was monitored via DAPI staining of cells at indicated time points after their treatment. Caspase activity was monitored by immunoblots using antibodies to caspase 9 (Santa Cruz). PARP cleavage was monitored by corresponding antibodies (PharMingen).
For orientation: Immunoblotting shows a protein as a band on a membrane.

Another assay concerns SW-1 cells. Description: Caspase and PARP cleavage immunoblot in SW-1 cells. It counts as cell-based, mouse. To be noted: peptides by transfection, UCN-01 (5 μm) 24 hours. As for the experimental part:
as §1, §2

In the next assay the test system is Jun2-Luc. Description: Jun2-Luc luciferase reporter assay in SW1 cells. It counts as cell-based, mouse. The conditions noted are these: SW1 cells expressing peptide, luciferase after 18 hours. As for the experimental part:
(§3) SW1 cells constitutively expressing the indicated ATF2 peptides were transfected with either TRE-Luc (FIG. 5A) or with Jun2-Luc (FIG. 5B), and proteins were prepared for analysis of luciferase activity after 18 hours. Analysis was performed in duplicate, and the data reflect three independent experiments. SW1 cells expressing the ATF2 peptides were analyzed to establish the degree of spontaneous (basal) apoptosis as well as apoptosis 24 hours following treatment with the chemotherapeutic drug UCN-01 (FIG. 5C). The data represent triplicate analysis reproduced three times.
(§4) Alteration of ATF2 Transcriptional Activity. Assessed next was whether the short peptide caused any change in transcriptional activity mediated by ATF2 and its heterodimeric partners, using the TRE and Jun2 promoter sequences linked to the Luciferase marker gene. These reporter constructs (0.3 μg) were cotransfected with the respective expression vectors into melanoma cells (5×10^5) using Lipofectamine (Invitrogen). Luciferase activity was measured using the Luciferase assay system (Promega).

For another assay, the system named is SW1 melanoma cells. Description: Apoptosis of SW1 cells by FACS (hypodiploid nuclei). To be noted: SW1 cells expressing peptide, treated with UCN-01; given as control-to-peptide increase. Type of assay: cell-based, mouse. As for the experimental part: as §3, §2
(In general: Flow cytometry measures light scatter and fluorescence of single cells or particles in a stream.)

Another assay concerns SW1 cells. Description: Tumor growth of SW1 cells constitutively expressing ATF2 peptides, injected subcutaneously. Type of assay: in vivo, mouse. To be noted: constitutive expression, 18 days. As for the experimental part:
SW1 cells, which constitutively express the peptides indicated in FIG. 4A, were analyzed to detect expression of ATF2 peptides at the RNA level using RT-PCR. The indicated MW bands reflect the expected size product. SW1 cells (10^6) were injected subcutaneously into […] mice and tumor growth was monitored for 18 days, at which point tumors were removed and their size carefully assessed (FIG. 4B). Each group included 6 animals and each experiment was performed twice (P<0.01; T-test).
Inhibition of Tumor Growth. To examine the importance of the JNK association domain on ATF2, the possible role of a smaller peptide containing an intact JNK binding site (i.e., amino acids M^51T^52 of ATF2) was examined. To this end, three peptides of differing sizes (amino acids 51-80, 51-70, and 51-60) were compared to ATF2^51-100 peptide in their ability to inhibit tumor growth of SW1 cells in vivo. RT-PCR reactions confirmed the expression of these peptides' transcripts in the SW1 cells (FIG. 4A). […] However, expression of the 50aa peptide in these cells (constitutive expression based on selection of drug-resistant cells) decreased tumor size to 300 mm^3. Strikingly, constitutive expression of each of the 3 shorter peptides also elicited inhibition of melanoma growth that varied from 400-600 mm^3 (FIG. 4B). […] Further evaluation was performed on this 10 amino acid peptide.

For another assay, the target named is T1, JNK-ATF2 association (Homo sapiens, UniProt P45984).
T1 construct: made in house; host or cells: JNK2 from transfected 293T cells; ATF2 from the TNT-coupled reticulocyte lysate system (Promega)
Description: In vitro association of bead-bound JNK with ATF2. Type of assay: binding. To be noted: 35S-labeled in vitro translated ATF2, synthetic peptide. As for the experimental part:
(§5) HA-JNK was transfected into 293T cells and 24 h later JNK was immunoprecipitated and bound to protein G beads. Bead-bound JNK was incubated with in vitro-translated c-Jun or ATF2 in the absence or presence of the wt or mutant form of ATF2^51-60. Following incubation bead-bound JNK was washed (see Example 4) and the amount of bound Jun or ATF2 was assessed via SDS-PAGE analysis subjected to autoradiography (Panel A) and quantification with the aid of a phosphor imager (Panels B and C).
(§6) Effect on JNK/Jun Association. The short peptide's ability to elicit major changes in TRE-dependent transcription and spontaneous apoptosis led to an assessment of possible changes in the JNK-Jun association. Flag JNK2 expressed in 293T cells extracted, immunopurified with anti-Flag antibody bound to Protein G agarose beads were first incubated with 3 mg/ml of BSA in phosphate-buffered saline for 2 h, followed by incubation at 4° C. for 2 h with ^35S-labeled in vitro translated c-Jun or ATF2 (TNT-coupled reticulocyte lysate system, Promega) in the presence of WT or mutant peptide. Bead-bound material was subjected to three washes with 20 mM Tris [pH 7.5], 150 mM NaCl, 1 mM EDTA, 1 mM EGTA, 0.5% NP-40, 1 mM NaVO4, and 1 mM DTT supplemented with protease inhibitors. […] Binding was detected by autoradiography and quantified with the aid of a phosphorimager. […]

A further assay relates to TRE-Luc. Description: TRE-Luc luciferase reporter assay in SW1 cells. Type of assay: cell-based, mouse. The conditions noted are these: SW1 cells expressing peptide, luciferase after 18 hours. As for the experimental part: as §3, §4
The target of a further assay is T2, JNK-c-Jun association (Homo sapiens, UniProt P45984).
T2 construct: made in house; host or cells: JNK2 from transfected 293T cells; c-Jun from the TNT-coupled reticulocyte lysate system (Promega)
Description: In vitro association of bead-bound JNK with c-Jun. It counts as binding. To be noted: 35S-labeled in vitro translated c-Jun, synthetic peptide. As for the experimental part: as §5, §6

Entries after “also recorded” stand apart in the source; their conditions may differ.

Consider `CN[C@@H]1C[C@H]2O[C@@](C)([C@@H]1OC)n1c3ccccc3c3c4c(c5c6ccccc6n2c5c31)C(=O)N[C@@H]4O` [UCN-01, reference compound], for which the PARP cleavage entry (in assay [1]; in the assay on SW-1 cells) was “PARP cleavage was observed” each time. Moreover, the “activation of caspase 9 (cleavage fragments)” value (in assay [1]; with SW-1 cells) was “caused activation of caspase 9” each time.
On to “ATF2^51-60: ATF2 peptide from amino acid residue 51 to 60 (about a 10 amino acid peptide); expressed in cells or synthesized (MTLKFGPARN; UniProt P15336 51-60, looked up, fragment)”, for which the Jun2-Luc transcriptional activity result in the assay with Jun2-Luc is “does not significantly affect Jun2-Luc activity”; with Jun2-Luc (listed as 51-60 amino acid peptide) it was “no longer inhibited and slightly elevated”. Moreover, in the assay with SW1 melanoma cells, the UCN-01-induced apoptosis was 20-40%. The “inhibition of SW1 melanoma growth in vivo” value with SW1 cells was “inhibits melanoma growth in vivo”; with SW1 cells (listed as 51-60), “efficient inhibition close to that observed with the 50 amino acid peptide”. The JNK-ATF2 association result in the assay with JNK-ATF2 association is reported as “not observed”. For the same compound, the “activation of caspase 9 (cleavage fragments)” value (in assay [1]; in the assay with SW-1 cells) was “activation of caspase 9 even prior to treatment with UCN-01” in each case. Also, in the assay on TRE-Luc, the TRE-Luc activity entry is given as “efficient in increasing TRE-Luc activities; also recorded: increases TRE-Luc activity”. The “association between JNK and c-Jun” value in the assay with JNK-c-Jun association was “increases the in vitro association between JNK and c-Jun in a dose-dependent manner; also recorded: increases Jun association with JNK”.
As to “ATF2^51-70: ATF2 peptide from amino acid residue 51 to 70 (about a 20 amino acid peptide) (MTLKFGPARNDSVIVADQTP; UniProt P15336 51-70, looked up, fragment)”, the “inhibition of SW1 melanoma growth in vivo” value in the assay with SW1 cells is “efficient inhibition close to that observed with the 50 amino acid peptide”.

The values above are taken from patent US20090281025A1, “INHIBITION OF TUMOR GROWTH AND METASTASIS BY ATF2-DERIVED PEPTIDES” (Mount Sinai School Of Medicine of New York University, priority 2004, published 2009).
